# From patent US20170128489A1 (priority 2014, published 2017)
structure (smiles),measurement,value
"NC(=O)CN(CC(N)=O)C1CCCCCCC1 [CO-IDAm, Cyclooctylimidodiacetamide]",melting point,152 to 154 °C
